Test results taken from patent US11597737B2, “Small molecule inhibitors selective for polo-like kinase proteins” (UNIVERSITY OF SOUTH CAROLINA, priority 2016, dated 2023).

Tests used:
[1] = test system: HCT-116 (p53−/−) colon cancer cells; assay: Cell viability assay (MTT), HCT116 p53-/-; type: cell-based; details: 72 hours
Experimental: HCT-116 (p53+/+ and −/−) colon cancer cells were maintained DMEM (Invitrogen™, Carlsebad, Calif.) supplemented with 10% FBS or Nu-serum (BD™ Biosciences, Franklin Lakes, N.J.) and 1% penicillin/streptomycin (Invitrogen™) in a humidified incubator and 5% C02 at 37° C.
(§1) Exponentially growing cells were plated in 96-well dishes. Dose response curves were used to treat cells for 72 hours with inhibitors. Following the three-day treatment, cell viability was measured using the MTT (3-(4,5-dimethylthiazol-2-yl)-2,5-diphenyltetrazolium bromide) colorimetric assay. Cells were incubated for 3 hours with MTT allowing viable cells to metabolize the tetrazolium dye to a purple colored solution. Absorbance measurements (595 nm) were quantified using a DTX 880 plate reader and IC50 values were generated for FLIPs.

PLK1 PBD (367-603) = target: T1, PLK1 PBD (367-603) (Homo sapiens, UniProt P53350); assay: Fluorescence polarization assay, PLK1 PBD; type: binding
T1 construct: PLK1 PBD (367-603); purchased BPS Biosciences Inc. (San Diego, Calif.)
Experimental: Fluorescence Polarization Assay
Materials were dissolved in DMSO (10 mM) and diluted from 10 nM to 600 μM (maximum of 6% DMSO tolerance in the assay). […] Incubation was carried out at room temperature for 45 minutes. Fluorescence was measured using a DTX 880 plate reader and Multimode Analysis software (Beckman Coulter, Brea, Calif.). […] Each data point was performed in triplicate for every experiment, and experiments were performed at least three times. An IC50 value for each compound was calculated from linear regression analysis of the plots.

[2] = test system: HeLa cervical cancer cells; assay: Cell viability assay (MTT), HeLa; type: cell-based; details: MTT, 72 hours; read-out: HeLa
Experimental: HeLa cervical cancer cells were obtained from ATCC (Manassas, Va.). […] Cells were maintained in DMEM (Invitrogen™, Carlsebad, Calif.) supplemented with 10% FBS or Corning© Nu-Serum™ (BD™ Biosciences, Franklin Lakes, N.J.) and 1% penicillin/streptomycin (Invitrogen™) in a humidified incubator and 5% CO2 at 37° C.
as §1, with “solution.” for “solution. Absorbance measurements (595 nm) were quantified using a DTX 880 plate reader and IC50 values were generated for FLIPs.”

PC3 cells [3] = assay: Cell cycle analysis and BrdU pulse labeling in PC3 cells, FIG. 9-11; type: cell-based
Experimental: (§2) Analysis of Cell Cycle Progression by FACS
(§3) Serum-Starved Synchronization
(§4) Cells were synchronized in G1 by serum starvation. Briefly, exponentially growing cells were plated overnight. Media (DMEM, 10% FBS, 1% Pen. Strep.) was then removed and replaced with media containing no FBS. Cells were starved for 72 hours then treated for 24 hours with inhibitor. Following treatment, cells were harvested and processed for endpoint experimental analysis.
(§5) Ethanol fixative was removed by centrifugation and the cells were washed with 1 mL ice-cold PBS/1% BSA. Cells were denatured by resuspending in 0.2 mg/mL pepsin in 2N HCl and incubated in 37° C. water bath for 15 minutes. Hydrolysis was then terminated by adding 1 M Invitrogen™ Novex® Tris-Glycine. Cells were then washed with PBS/1% BSA then the primary anti-BrdU antibody (1:100 dilution in TBFP; 0.5% Tween-20, 1% BSA, 1% FBS, PBS) was added and cells were incubated for 25 minutes in the dark, at room temperature. […] Cells were washed once more with PBS/1% BSA and re-suspended in DAPI for 30 minutes before being analyzed by flow cytometry.
The PLK1 PBD-inhibitors were analyzed further by cell cycle analysis in PC3 cells (FIG. 9). […] To quantify the percentage of cells actively proliferating (synthesizing their DNA) or arrested Bromodeoxyuridine (BrdU) pulse labeling was carried out and analyzed by flow cytometry.

[4] = test system: HCT-116 (p53+/+) colon cancer cells; assay: Cell viability assay (MTT), HCT116 p53+/+; type: cell-based; details: 72 hours
Experimental: as §1, with “solution.” for “solution. Absorbance measurements (595 nm) were quantified using a DTX 880 plate reader and IC50 values were generated for FLIPs.”

PC3 cells [5] = assay: Cell cycle analysis after release (DAPI/BrdU FACS), FIG. 3; type: cell-based; details: FIG. 3 4th panel, concentration not given
Experimental: PLK specificity can be useful in therapeutic applications, as well as in research-oriented application.
as §2, §3, §4, §5

[6] = test system: PTEN deficient prostate cancer (PC3) cells; assay: Cell viability assay (MTT), PC3; type: cell-based; details: MTT, 72 hours; read-out: PCC-3
Experimental: PC3 prostate cancer cells were maintained in DMEM (Invitrogen™, Carlsebad, Calif.) supplemented with 10% FBS or Corning® Nu-Serum™ (BD™ Biosciences, Franklin Lakes, N.J.) and 1% penicillin/streptomycin (Invitrogen™) in a humidified incubator and 5% C02 at 37° C.
as §1, with “solution.” for “solution. Absorbance measurements (595 nm) were quantified using a DTX 880 plate reader and IC50 values were generated for FLIPs.”

[7] = Cell cycle analysis and caspase apoptosis assay; type: cell-based
Description: Disclosed small molecule inhibitors can also encourage apoptosis.

[8] = test system: KRAS mutant lung cancer (A-549) cells; assay: Cell viability assay (MTT), A-549; type: cell-based; details: 72 hours
Experimental: A-549 lung cancer cells were maintained in Hams F-12 1× with glutamine (Corning® Cellgro, Manassas, Va.), and supplemented with 10% FBS or Corning® Nu-Serum™ (BD™ Biosciences, Franklin Lakes, N.J.) and 1% penicillin/streptomycin (Invitrogen™) in a humidified incubator and 5% C02 at 37° C.
as §1

full length PLK1 = target: T2, full length PLK1 (Homo sapiens, UniProt P53350); assay: PLK1 kinase inhibition assay (CycLex ELISA); type: biochemical; details: 7.5 μM ATP, read-out: PLK1 Kinase Inhibitory Act. IC50
T2 construct: This ELISA assay measures the catalytic activity of full length PLK1 for a defined substrate
Description: PLK1 Kinase Inhibition Assay
The CycLex® Polo-like Kinase 1 Assay/Inhibitor Screening Kit was used to measure catalytic inhibition (MBL Life Science, Nagano, Japan). This ELISA assay measures the catalytic activity of full length PLK1 for a defined substrate, which is detected by an anti-phospho-threonine antibody (PPT-07) and peroxidase coupled secondary antibody. […] Peroxidase catalyzes the conversion of the colorless solution to yellow, which was quantified using a DTX 880 plate reader. Absorbance measurements (450 nm) were plotted to calculate activity in each sample, and % inhibition was calculated in the wells relative to activity in the absence of inhibitor.

T1 sequence (P53350 367-603): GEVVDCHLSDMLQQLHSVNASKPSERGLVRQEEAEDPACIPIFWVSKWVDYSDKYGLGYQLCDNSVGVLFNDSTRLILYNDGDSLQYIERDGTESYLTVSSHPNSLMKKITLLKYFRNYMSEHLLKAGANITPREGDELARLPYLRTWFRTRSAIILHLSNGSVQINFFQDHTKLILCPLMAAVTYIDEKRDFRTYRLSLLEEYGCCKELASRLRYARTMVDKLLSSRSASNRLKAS
T2 sequence (P53350 whole entry): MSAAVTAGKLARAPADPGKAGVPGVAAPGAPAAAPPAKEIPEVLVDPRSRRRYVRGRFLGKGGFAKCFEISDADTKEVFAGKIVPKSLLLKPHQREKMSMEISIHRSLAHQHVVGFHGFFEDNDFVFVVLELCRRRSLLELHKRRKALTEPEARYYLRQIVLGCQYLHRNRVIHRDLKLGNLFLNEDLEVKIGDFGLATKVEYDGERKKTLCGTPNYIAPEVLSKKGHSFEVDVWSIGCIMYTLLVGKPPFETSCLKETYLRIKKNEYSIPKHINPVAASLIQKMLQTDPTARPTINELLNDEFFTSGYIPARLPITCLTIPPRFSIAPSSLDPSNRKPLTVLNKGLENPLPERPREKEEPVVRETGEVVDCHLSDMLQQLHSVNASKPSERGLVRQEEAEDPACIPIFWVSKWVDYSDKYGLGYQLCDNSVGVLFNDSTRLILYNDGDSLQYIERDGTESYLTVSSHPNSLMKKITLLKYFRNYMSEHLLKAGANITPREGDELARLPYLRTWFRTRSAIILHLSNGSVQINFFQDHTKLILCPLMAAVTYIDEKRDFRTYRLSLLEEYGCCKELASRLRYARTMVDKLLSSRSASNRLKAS

CCCCCCCCc1ccc(C(=O)Nc2ccc(C)cc2C(=O)O)cc1 [SCCP ID No. 5915]
IC50 [1]: 10 ± 1 µM | PLK1 versus PLK3 specificity (in words) (PLK1 PBD (367-603); PBD binding): high selectivity for PLK1 | IC50 (PLK1 PBD (367-603); PLK1 PBD binding, fluorescence polarization, read-out: PLK1 IC50): 2.16 ± 0.01 µM | IC50 [2]: 15.5 ± 1.7 µM | cells replicating their DNA (BrdU labeling) (PC3 cells [3]; 5 μM): 28.3% | BrdU+ (PC3 cells [3]; 15 μM): 3.6% | cell cycle phenotype (in words) (PC3 cells [3]; 15 μM): G1 delay or arrest | IC50 [4]: 17.4 ± 5.6 µM | G2/M by DAPI (PC3 cells [5]): 42% | cells BrdU+ (PC3 cells [5]): 13% | IC50 [6]: 16.3 ± 2.1 µM | levels of apoptosis (in words) [7]: high levels of apoptosis | IC50 [8]: 5.1 ± 1.5 µM | IC50 (full length PLK1): 24.3 µM
